Values of other authors as cited in patent publication US20230039551A1, “BUFFER- AND CHELATOR-FREE, STABLE OPHTHALMOLOGICAL COMPOSITIONS OF KETOROLAC AND PHENYLEPHRINE AND APPLICATIONS THEREOF” (Somerset Therapeutics, LLC, priority 2021, published 2023).
Where a name gives a salt, the structure may show the parent alone.

Row | Structure (SMILES) | pKa value
1 | O=C(c1ccccc1)c1ccc2n1CCC2C(=O)O (centres unmarked) [Ketorolac tromethamine, 2-amino-2-(hydroxymethyl)propane-1,3-diol; 5-benzoyl-2,3-dihydro-1H-pyrrolizine-1-carboxylic acid] | about 3.5
2 | CNC[C@H](O)c1cccc(O)c1 [Phenylephrine HCl, 3-(1R)-1-hydroxy-2-(methylamino)ethyl]phenol; hydrochloride] | about 9.07
